# From ChEMBL document CHEMBL1133377, “1-[2-(Diphenylmethoxy)ethyl]-2-methyl-5-nitroimidazole: a potent lead for the design of novel NNRTIs” (Bioorg Med Chem Lett, 2000)
# pEC50, pIC50: −log10 of the molar value.
# Columns and labels:
# [1] = molecular target: Human immunodeficiency virus type 1 reverse transcriptase (Human immunodeficiency virus 1, UniProt Q72547); experiment: Compound dose required to inhibit HIV-1 reverse transcriptase enzyme(rRT) activity
# MT4 = experiment: Compound dose required to achieve protection of MT-4 cells from HIV-1 induced cytopathicity using MTT method; format: functional, cell-based; settings: Homo sapiens
# [2] = Selectivity index is ratio of CC50 to that of EC50; format: functional
# [3] = Compound dose required to reduce viability of mock infected cells using MTT method; format: functional
Compound,pIC50 [1],pEC50 (MT4),S.I [2],CC50 [3] [µM]
Cc1ncc([N+](=O)[O-])n1CCOC(c1ccccc1)c1ccc(Cl)cc1Cl (centres undefined),5.85,5.82,36,54
Clc1ccc(C(OCCn2ccnc2)c2ccc(Cl)cc2Cl)cc1 (centres undefined),–,< 4.59,–,26
Cc1ncc([N+](=O)[O-])n1CCOC(c1ccccc1)c1ccc(Cl)cc1 (centres undefined),–,4.90,> 16,> 200
Cc1ncc([N+](=O)[O-])n1CCOC(c1ccccc1)c1ccc(-c2ccccc2)cc1 (centres undefined),–,4.77,12,> 200
Cc1ccc(C(OCCn2c([N+](=O)[O-])cnc2C)c2ccccc2)cc1 (centres undefined),5.68,5.85,61,86
Cc1ncc([N+](=O)[O-])n1CCOC(c1ccccc1)c1ccc(F)cc1 (centres undefined),5.64,6.05,222,> 200
Cc1ccnc2c1NC(=O)c1cccnc1N2C1CC1 [NEVIRAPINE],–,–,> 1000,> 300
Cc1ncc([N+](=O)[O-])n1CCOC(c1ccccc1)c1ccccc1,7.30,6.70,> 1000,> 200
Cc1ncc([N+](=O)[O-])n1CCOC(c1ccccc1)c1ccc(C(C)(C)C)cc1 (centres undefined),5.82,5.40,11,44
c1ccc(C(OCCn2ccnc2)c2ccccc2)cc1,–,< 4.00,–,100
Clc1ccc(C(OCCn2ccnc2)c2ccccc2)c(Cl)c1 (centres undefined),–,< 4.51,–,31
